We go through 14 molecules from US20230174484A1, “ANTAGONISTS OF GPR39 PROTEIN” (Oregon Health & Science University, priority 2020, published 2023).

The assay addresses T1, human GPR39 receptor (Homo sapiens, UniProt O43194).
T1 construct: PC3 Cells, Expressing the Endogenous Human GPR39 Receptor; endogenous in cells; host or cells: PC3 (human prostate adenocarcinoma) cells
T1 sequence (O43194 1-453): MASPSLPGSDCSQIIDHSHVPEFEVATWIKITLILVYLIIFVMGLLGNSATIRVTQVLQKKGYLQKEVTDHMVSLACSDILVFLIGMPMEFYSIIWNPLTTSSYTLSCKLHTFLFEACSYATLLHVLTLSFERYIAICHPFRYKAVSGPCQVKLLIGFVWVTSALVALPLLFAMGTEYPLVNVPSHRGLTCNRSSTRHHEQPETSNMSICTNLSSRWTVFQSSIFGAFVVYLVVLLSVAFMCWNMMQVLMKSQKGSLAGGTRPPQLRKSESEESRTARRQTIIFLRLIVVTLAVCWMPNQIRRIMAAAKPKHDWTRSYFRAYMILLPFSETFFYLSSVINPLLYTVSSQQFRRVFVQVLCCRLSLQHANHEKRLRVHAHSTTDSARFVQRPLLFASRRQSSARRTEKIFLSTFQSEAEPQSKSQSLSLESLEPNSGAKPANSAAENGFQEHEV
Kind of assay: Measurement of intracellular calcium response in PC3 cells (FLIPR), antagonism of the C3 agonist response. The format is cell-based. Conditions: functional pKi (modified Cheng-Prusoff), inhibition of the C3 (TC-G 1008) response at EC90, 30 μM ZnCl2, read-out: fpKi activity. How it is done: Human prostate adenocarcinoma (PC3) cells endogenously expressing human GPR39 receptor were seeded into black walls clear-base 384-well plates at a density of 7,500 cells per well in DM EM (Low Glucose) supplemented with 10% heat-inactivated foetal bovine serum and 1% of Pen/Strep and grown overnight at 37° C., 5% CO2. After washing with assay buffer (20 mM HEPES, 137 mM NaCI, 5.4 mM KCI, 10 mM glucose, 0.8 mM MgSO4, 1.3 mM CaCl2, 0.3 mM Na2HPO4, 0.4 mM KH2PO4 4.2 mM NaHCO3, pH 7.4), cells were incubated with Calcium-6 probe (Molecular Devices) at 37° C. for 2h and then equilibrated at RT for 30 minutes on metal block. The fluorescence was measured in real time by Fluorometric Imaging Plate Reader (FLIPR TETRA, Molecular Devices) (excitation wavelength at 470-495 nm, emission wavelength at 515-575 nm).
Compounds of invention were serially diluted in neat DMSO at 1000 fold concentrations and plated into 384-well plates and then 200-fold diluted in assay buffer containing 150 uM ZnCl2 (30 μM final concentration) and […].
Fluorescence was monitored throughout the run assay. The peak of Ca2+stimulation (baseline subtracted) was expressed as percentage of the maximal inhibition of the EC90 C3 response and was plotted versus the concentration of test compound. Curve fitting and IC50 estimations are carried out using a four-parameter logistic model using XLfit Software.
The potency of compounds was reported as functional pKi (—Log10Ki) obtained using the modified Cheng-Prusoff relationship (Cheng, Y., Prusoff, W. H. 1973.)
fKi =IC50/(1+[L]/EC50) where IC50 is the concentration of antagonist required for 50% inhibition of the maximum response, [L] is the concentration of the agonist used (EC90) and EC50 is the concentration of agonist need to induced 50% of the maximum response (obtained in each experimental plate).
An fpKi less than 5.2 is reported as “+/±”. An fpKi ranging from 5.2 to 5.9 is reported as “+”. An fpKi from 6.0 to 6.5 is reported as “++”. An fpKi from 6.6 to 7.2 is reported as “+++”. An fpKi equal to or greater than 7.3 is reported as “++++”.

`O=C(Nc1ccc(C(=O)N2CCC3(CC2)COC3)c(N2CCC(C(F)(F)F)C2)c1)C1CC1` (single isomer, unassigned) [Example 213b]: the Ki was in the range of 63.1 to 251 nM.
Under `CN1CCn2c(cnc2-c2ccc(NC(=O)C3CC3)cc2N2CCCC2)C1` [Example 103, N-[4-(7-methyl-6,8-dihydro-5H-imidazo[1,5-a]pyrazin-3-yl)-3-pyrrolidin-1-ylphenyl]cyclopropanecarboxamide] stands 316 to 1000 nM; under `CN1CCN(C(=O)c2ccc(NC(=O)C3CC3)cc2N2CCCCCC2)C(Cc2ccccc2)C1` (centres unmarked) [Example 76, N-[3-(azepan-1-yl)-4-(2-benzyl-4-methylpiperazine-1-carbonyl)phenyl]Cyclopropanecarboxamide], 63.1 to 251 nM.
With `CN1CCN(C(=O)c2ccc(NC(=O)C3CC3)cc2N2CCCC2)C(c2ccccc2F)C1` (racemic) [Example 84c, N-[4-[2-(2-fluorophenyl)-4-methylpiperazine-1-carbonyl]-3-pyrrolidin-1-ylphenyl]cyclopropanecarboxamide] the figure was 63.1 to 251 nM; with `O=C(Nc1ccc(C(=O)N2CCOCC2c2ccccc2)c(N2CCCC2)c1)C1CC1` (racemic) [Example 167, N-[4-(3-phenylmorpholine-4-carbonyl)-3-pyrrolidin-1-ylphenyl]cyclopropanecarboxamide], 63.1 to 251 nM; with `CCCN1CCN(C(=O)c2ccc(NC(=O)C3CC3)cc2N2CCCCC2)CC1` [Example 19, N-(3-(piperidin-1-yl)-4-(4-propylpiperazine-1-carbonyl)phenyl)cyclopropanecarboxamide], 316 to 1000 nM.
`CCCN1CCN(C(=O)c2ccc(NC(=O)C3CC3)cc2N2CCC(C)C2)CC1` (single isomer, unassigned) [Example 13a, N-(3-[(3R or 3S] 3-methylpyrrolidin-1-yl]-4-(4-propylpiperazine-1-carbonyl)phenyl) cyclopropanecarboxamide]: the Ki lay within 63.1 to 251 nM.
Under `CN1CCN(C(=O)c2ccc(NC(=O)C3CC3)cc2N2CC3(CCOC3)C2)C(c2ccccc2)C1` (centres unmarked) [Example 205, N-[4-(4-methyl-2-phenylpiperazine-1-carbonyl)-3-(6-oxa-2-azaspiro[3.4]octan-2-yl)phenyl]cyclopropanecarboxamide] stands 63.1 to 251 nM; under `CCCN1CCN(C(=O)c2ccc(NC(=O)C3CC3)cc2N2CCC(C)CC2)CC1` [Example 15, N-(3-(4-methylpiperidin-1-yl)-4-(4-propylpiperazine-1-carbonyl)phenyl) cyclopropanecarboxamide], 63.1 to 251 nM; under `CCCN1CCN(C(=O)c2ccc(NC(=O)C(C)C)cc2N2CCCCCC2)CC1` [Example 93, N-(3-(azepan-1-yl)-4-(4-propylpiperazine-1-carbonyl)phenyl)isobutyramide], 316 to 1000 nM.
With `CN1CCN(C(=O)c2ccc(NC(=O)C3CC3)cc2N2CCCCCC2)C(c2ccsc2)C1` (racemic) [Example 70c, N-(3-(azepan-1-yl)-4-(4-methyl-2-(thiophen-3-yl)piperazine-1-carbonyl)phenyl)cyclopropane carboxamide] the figure was 63.1 to 251 nM; with `CN1CCN(C(=O)c2ccc(NC(=O)C3CC3)cc2-n2cc(C(F)(F)F)cn2)C(c2ccccc2)C1` (centres unmarked) [Example 207, N-[4-(4-methyl-2-phenylpiperazine-1-carbonyl)-3-[4-(trifluoromethyl)pyrazol-1-yl]phenyl]cyclopropanecarboxamide], 316 to 1000 nM; with `Cc1cc(C(F)(F)F)nn1-c1cc(NC(=O)C2CC2)ccc1C(=O)N1CCS(=O)(=O)CC1` [Example 178, N-[4-(1,1-dioxo-1,4-thiazinane-4-carbonyl)-3-[5-methyl-3-(trifluoromethyl)pyrazol-1-yl]phenyl]cyclopropanecarboxamide], 63.1 to 251 nM.
Consider `CN1CCN(C(=O)c2ccc(NC(=O)C3CC3)cc2N2CCCCCC2)C(c2cccs2)C1` (single isomer, unassigned) [Example 69a, N-(3-(azepan-1-yl)-4-(4-methyl-2-(thiophen-2-yl)piperazine-1-carbonyl)phenyl) cyclopropane carboxamide], for which the Ki lay within 1260 to 6310 nM.
